In US9687529B2, “Method of controlling coagulation” (Duke University, priority 2011, dated 2017):

How the values were obtained:
FIXa = biological target: T1, FIXa (Homo sapiens, UniProt P00740); conditions: clinical studies; cited from earlier work
T1 construct: host or cells: circulating blood of trial subjects (endogenous protein)

[1] = Cardiopulmonary bypass on a juvenile pig; type: in vivo; conditions: 3-hr period of CPB
[2] = tested on: clot formation in whole blood; assay: TEG of whole blood, coagulation triggered by tissue factor (Example I); type: cell-based; conditions: TF; for clot formation (in words): FVIIa aptamer 0.5, FIXa aptamer 1.0, FXa aptamer 1.0 micromolar
Experimental: TEG is a waveform generated from serial measurements of the torque transmitted from a small oscillating cup to the tip of a metal pin inserted into the cup by a 360 microliter sample of blood or plasma added to the cup.
A 360 microliter blood sample has been added to the cup. For 180 minutes after the sample is added, the cup oscillates alternatively clockwise and counterclockwise through an arc of 4° 45′ at a frequency of one oscillation cycle—i. e., one clockwise rotation and one counterclockwise rotation—every 10 seconds. The lower end of the pin is immersed by the sample; the upper end is suspended from a torsion wire. The TEG analyzer records a single measurement of rotation-induced torque after each clockwise rotation and after each counterclockwise rotation of the cup. “The torque of the rotating cup is transmitted to the immersed pin only after fibrin-platelet bonding has linked the cup and [the] pin together. The strength of these fibrin-platelet bonds affects the magnitude of the pin motion, such that strong clots move the pin directly in phase with the cup motion. Thus, the magnitude of the output is directly related to the strength of the formed clot . . . . [If] the clot retracts or lyses, these bonds are broken and the transfer of cup motion is diminished. The rotation movement of the pin is converted by a mechanical-electrical transducer to an electrical signal which can be monitored by a computer” (TEG 5000 User Manual, pp 3-4, 1999-2007)). The computer converts the series of electrical signals into the TEG tracing.

whole blood = assay: Isolated 25-mL oxygenator circuit (Example II); conditions: 2 micromolar
Experimental: FIG. 18 is a photograph of the isolated 25-mL oxygenator circuit, the principal components of which are a 5-mL venous reservoir, a custom-designed polypropylene membrane oxygenator, segments of 1.6 mm internal diameter silicone tubing that connect the oxygenator with the reservoir, and a small roller pump. The oxygenator is constructed of two 10 cm×10 cm rectangular Plexiglas® shells that surround and hold a 9.5 cm×9.5 cm×1 mm polypropylene membrane. Its priming volume is 4 mL. The pump circulates the blood continuously from the reservoir through the oxygenator and back to the reservoir.
Unpublished experiments have shown that the thrombogenicity of the isolated 25-mL oxygenator circuit resembles the thrombogenicity of a CPB circuit. […] Clot formation occurred approximately 30 minutes after circulation was started. […] In contrast, UFH 5, U/mL, as well as the combination of RNA9.3t, RNA11F7t, and thrombin aptamer both prevented clot formation in blood circulated for 2 hours in the isolated circuit.

[3] = aptamer/antidote pair; neonatal porcine cardiopulmonary bypass; cited from earlier work
human prothrombin = human prothrombin (Homo sapiens, UniProt P00734); conditions: read-out: apparent Kd; cited from earlier work

T1 sequence (P00740 227-461 limits assumed): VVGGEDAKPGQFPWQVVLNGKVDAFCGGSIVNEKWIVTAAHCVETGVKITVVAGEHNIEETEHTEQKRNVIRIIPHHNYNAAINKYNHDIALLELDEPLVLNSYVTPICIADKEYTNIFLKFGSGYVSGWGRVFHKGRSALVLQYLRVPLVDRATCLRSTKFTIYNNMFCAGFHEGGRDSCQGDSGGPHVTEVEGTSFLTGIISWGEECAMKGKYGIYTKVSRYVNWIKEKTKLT
T1 sequence (P00740 47-191 partner limits assumed): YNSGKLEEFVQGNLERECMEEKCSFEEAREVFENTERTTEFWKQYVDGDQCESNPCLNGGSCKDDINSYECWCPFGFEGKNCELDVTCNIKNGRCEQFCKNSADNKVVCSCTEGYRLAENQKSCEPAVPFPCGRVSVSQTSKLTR

For “9.3T: FIXa aptamer, 2'-fluoropyrimidine modified RNA, SEQ ID NO: 1 (AUGGGGACUAUACCGCGUAAUGCUGCCUCCCCAU; 2'-fluoro at CU, RNA at AG, backbone not given here) [Aptamer 9.3T]”, the “FIXa activity inhibited in vivo” value (FIXa) is listed as “greater than 99%”, the “anticoagulation during CPB (in words)” value [1] is listed as “failed to effect satisfactory anticoagulation” and the “clot formation (in words)” value [2] is listed as “none of those aptamers prevented clot formation”. The “clot formation in isolated oxygenator circuit (in words)” value (whole blood) was “failed to prevent clot formation”, the “time of clot formation after circulation was started” value (whole blood) was “approximately 30 minutes” and the “anticoagulation in CPB model (in words)” value [3] was “sufficiently anticoagulated blood”.
In the case of “R9D-14T: prothrombin/thrombin aptamer, 58-base truncation of RNA9D-14, SEQ ID NO: 3 (GGCGGTCGATCACACAGTTCAAACGTAATAAGCCAATGTACGAGGCAGACGACTCGCC; 2'-fluoro at CT, RNA at AG, backbone and T or U not given here) [Aptamer R9D-14T]”, the Kd (human prothrombin) is listed as 10 nM.
In the case of “11F7T: FXa aptamer, 2'-fluoropyrimidine modified RNA, SEQ ID NO: 2 (GAGAGCCCCAGCGAGAUAAUACUUGGCCCCGCUCUU; 2'-fluoro at CU, RNA at AG, backbone not given here) [Aptamer 11F7T]”, the MA ([2]; 1.0 micromolar, buffer 69.7 mm) is reported as 59.5 mm, the “R, lag time” value ([2]; 1.0 micromolar, buffer 4.4 minutes) is reported as 17.8 min and the α ([2]; 1.0 micromolar, buffer about 55 degrees) is reported as 24 degrees. The “clot formation (in words)” value [2] was “did not prevent the ultimate development of clot”.
